{"source": "patent US10800742B2", "about": "“Small molecule compounds targeting PBX1 transcriptional complex” (THE JOHNS HOPKINS UNIVERSITY, priority 2015, dated 2020)", "system": "SKOV3 carboplatin-resistant cancers", "assay": "SKOV3CRLuc subcutaneous xenograft", "type": "in vivo, athymic nu/nu mice", "settings": "platinum-resistant mouse tumor model", "experimental": "[MUT] and SKOV3CRLuc cells were injected subcutaneously into the athymic nu/nu mice (3×10^6, n=8 for each group). Parental SKOV3Luc cells were used as a negative control. Mice were intraperitoneally (i.p.) injected with [MUT] (red, 2.5 mg/kg/injection) or DMSO (red arrows) using a 3 days-on 4-days off protocol. Carboplatin (30 mg/kg/injection) was administrated i.p. every other day (green arrows). (B) Tumor volume was measured every other day for 25 to 40 days using a caliper, and luminescence activity was evaluated weekly. (C) Endpoint tumor volumes of [MUT], SKOV3Luc, and SKOV3CRLuc xenografts treated with the indicated drug or drug combination. Student's t-test. (D) Representative bioluminescence images of tumor burden in SKOV3CRLuc-innoculated mice treated with indicated drug. Images captured by the IVIS Spectrum at day 35. […] In vivo bioluminescence images were taken at the same time using the IVIS Spectrum. […] We tested the anti-tumor potency of [MUT]"}
{"smiles": "N.N.O=C([O-])C1(C(=O)[O-])CCC1.[Pt+2]", "note": "[carboplatin]", "values": [{"measurement": "anti-tumor potency (tumor growth)", "value": "relatively ineffective"}]}
